{
  "source": "patent US20260007133A1",
  "about": "“HERBICIDAL COMPOSITION COMPRISING AZINE COMPOUNDS” (BASF SE, priority 2022, published 2026)",
  "type_in_all_cases": "in vivo",
  "key": {"Lolium multiflorum": {"test_system": "Lolium multiflorum", "assay": "Greenhouse pre-emergence (PRE) herbicidal test on LOLMU", "conditions": "Lolium multiflorum, pre-emergence; for pest or weed control at 2 g/ha: I-3 solo 2 gai/ha", "in_short": "(§1)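 Visual 0–100 rating at 20 days after treatment; 0 = normal growth, 100 = no emergence or complete kill of shoots. Pre-emergent application to seeded pots of loamy sand (~3.0% humus), species-dependent temperature 10-25° C or 20-35° C.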"}, "Ambrosia artemisiifolia": {"test_system": "Ambrosia artemisiifolia", "assay": "Greenhouse pre-emergence (PRE) herbicidal test on AMBEL", "conditions": "Ambrosia artemisiifolia, pre-emergence"}, "Geranium pusillum [1]": {"test_system": "Geranium pusillum", "assay": "Greenhouse post-emergence (POST) herbicidal test on GERPU", "conditions": "for inhibition at 2 g/ha: use rate 2 gai/ha; for inhibition at 4 g/ha: use rate 4 gai/ha", "in_short": "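Plants grown in pots of loamy sand (~3.0% humus) to 3–15 cm height, then sprayed with compounds suspended or emulsified in water (formulated as 5% by weight emulsion concentrate). Kept at 10-25° C or 20-35° C by species; injury scored 0–100 (100 = complete destruction) at 20 DAT.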"}, "Amaranthus retroflexus": {"test_system": "Amaranthus retroflexus", "assay": "Greenhouse pre-emergence (PRE) herbicidal test on AMARE", "conditions": "Amaranthus retroflexus, pre-emergence, 480 h, PRE, 20 DAT; for inhibition at 2 g/ha: AMARE", "in_short": "as §1"}, "Geranium pusillum [2]": {"test_system": "Geranium pusillum", "assay": "Greenhouse pre-emergence (PRE) herbicidal test on GERPU", "conditions": "Geranium pusillum, pre-emergence, GERPU PRE", "in_short": "(§2)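 Damage was rated visually on a 0 to 100 scale at 20 days after treatment, where 0 meant normal growth and 100 meant no emergence or complete kill of above-ground parts. Compounds were applied in water to freshly sown loamy-sand pots.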"}, "Avena fatua": {"test_system": "Avena fatua", "assay": "Greenhouse pre-emergence (PRE) herbicidal test on AVEFA", "conditions": "use rate 2 gai/ha", "in_short": "as §2"}, "Euphorbia heterophylla": {"test_system": "Euphorbia heterophylla", "assay": "Greenhouse pre-emergence (PRE) herbicidal test on EPHHL", "conditions": "Euphorbia heterophylla, pre-emergence", "in_short": "as §1"}},
  "note": "Like-named read-outs stand apart in the source and are kept apart here.",
  "data": [
    {"smiles": "COc1c(Cl)cc(F)c(F)c1Nc1nc(N)nc(C(C)(C)F)n1", "note": "[Compound I-3]", "values": [
      {"measurement": "inhibition at 2 g/ha", "setting": "Lolium multiflorum; 432 h, PRE, LOLMU, 2 gai/ha, 18 DAT, read-out: % activity solo application", "result": 10, "unit": "%"},
      {"measurement": "inhibition at 8 g/ha", "setting": "Lolium multiflorum; 432 h, PRE, LOLMU, 8 gai/ha, 18 DAT, read-out: % activity solo application", "result": 70, "unit": "%"},
      {"measurement": "pest or weed control at 2 g/ha", "setting": "Lolium multiflorum; 432 h, PRE, LOLMU, 18 DAT, read-out: % activity", "result": 10, "unit": "%"},
      {"measurement": "pest or weed control at 8 g/ha", "setting": "Lolium multiflorum; 432 h, PRE, LOLMU, I-3 solo 8 gai/ha, 18 DAT", "result": 70, "unit": "%"},
      {"measurement": "inhibition at 8 g/ha", "setting": "Lolium multiflorum; 480 h, LOLMU PRE, 20 DAT, use rate 8 gai/ha, read-out: % activity", "result": 90, "unit": "%"},
      {"measurement": "pest or weed control at 8 g/ha", "setting": "Lolium multiflorum; 480 h, PRE, 8 gai/ha, 20 DAT", "result": 90, "unit": "%"},
      {"measurement": "inhibition at 8 g/ha", "setting": "Lolium multiflorum; 480 h, PRE, LOLMU, 8 gai/ha, 20 DAT, read-out: % activity solo application", "result": 95, "unit": "%"},
      {"measurement": "pest or weed control at 2 g/ha", "setting": "Lolium multiflorum; 480 h, PRE, LOLMU, 20 DAT, read-out: % activity", "result": 25, "unit": "%"},
      {"measurement": "inhibition at 2 g/ha", "setting": "Lolium multiflorum; 480 h, PRE, LOLMU, use rate 2 gai/ha, 20 DAT, read-out: solo application % activity", "result": 50, "unit": "%"},
      {"measurement": "inhibition at 4 g/ha", "setting": "Lolium multiflorum; 480 h, PRE, LOLMU, use rate 4 gai/ha, 20 DAT", "result": 80, "unit": "%"},
      {"measurement": "inhibition at 2 g/ha", "setting": "Lolium multiflorum; 480 h, PRE, use rate 2 gai/ha, 20 DAT, read-out: % activity", "result": 20, "unit": "%"},
      {"measurement": "inhibition at 2 g/ha", "setting": "Lolium multiflorum; PRE, LOLMU, use rate 2 gai/ha, read-out: % activity", "result": 40, "unit": "%"},
      {"measurement": "inhibition at 2 g/ha", "setting": "Ambrosia artemisiifolia; 240 h, PRE, use rate 2 gai/ha, 10 DAT, read-out: % activity", "result": 10, "unit": "%"},
      {"measurement": "inhibition at 8 g/ha", "setting": "Ambrosia artemisiifolia; 240 h, PRE, use rate 8 gai/ha, 10 DAT, read-out: % activity", "result": 65, "unit": "%"},
      {"measurement": "inhibition at 2 g/ha", "setting": "Ambrosia artemisiifolia; 480 h, AMBEL PRE, 20 DAT, use rate 2 gai/ha, read-out: % activity", "result": 50, "unit": "%"},
      {"measurement": "inhibition at 2 g/ha", "setting": "Ambrosia artemisiifolia; 480 h, PRE, AMBEL, 2 gai/ha, 20 DAT, read-out: % activity solo application", "result": 10, "unit": "%"},
      {"measurement": "inhibition at 8 g/ha", "setting": "Ambrosia artemisiifolia; 480 h, PRE, AMBEL, 8 gai/ha, 20 DAT, read-out: % activity solo application", "result": 45, "unit": "%"},
      {"measurement": "inhibition at 2 g/ha", "setting": "Ambrosia artemisiifolia; 480 h, PRE, AMBEL, use rate 2 gai/ha, 20 DAT, read-out: solo application % activity", "result": 10, "unit": "%"},
      {"measurement": "inhibition at 8 g/ha", "setting": "Ambrosia artemisiifolia; 480 h, PRE, AMBEL, use rate 8 gai/ha, 20 DAT, read-out: solo application % activity", "result": 45, "unit": "%"},
      {"measurement": "inhibition at 8 g/ha", "setting": "Ambrosia artemisiifolia; 480 h, PRE, use rate 8 gai/ha, 20 DAT, read-out: % activity", "result": 90, "unit": "%"},
      {"measurement": "inhibition at 4 g/ha", "setting": "Ambrosia artemisiifolia; PRE, AMBEL, use rate 4 gai/ha", "result": 25, "unit": "%"},
      {"measurement": "% activity", "setting": "Geranium pusillum [1]; GERPU POST, use rate 8 gai/ha", "result": 50, "unit": "%"},
      {"measurement": "pest or weed control at 2 g/ha", "setting": "Geranium pusillum [1]; Geranium pusillum, post-emergence, 432 h, POST, GERPU, I-3 solo 2 gai/ha, 18 DAT", "result": 25, "unit": "%"},
      {"measurement": "inhibition at 2 g/ha", "setting": "Geranium pusillum [1]; Geranium pusillum, post-emergence, 480 h, GERPU POST, 20 DAT, read-out: % activity", "result": 25, "unit": "%"},
      {"measurement": "pest or weed control at 2 g/ha", "setting": "Geranium pusillum [1]; Geranium pusillum, post-emergence, 480 h, POST, 2 gai/ha, 20 DAT", "result": 10, "unit": "%"},
      {"measurement": "pest or weed control at 8 g/ha", "setting": "Geranium pusillum [1]; Geranium pusillum, post-emergence, 480 h, POST, 8 gai/ha, 20 DAT", "result": 75, "unit": "%"},
      {"measurement": "pest or weed control at 2 g/ha", "setting": "Geranium pusillum [1]; Geranium pusillum, post-emergence, 480 h, POST, GERPU, I-3 solo 2 gai/ha, 20 DAT", "result": 20, "unit": "%"},
      {"measurement": "pest or weed control at 8 g/ha", "setting": "Geranium pusillum [1]; Geranium pusillum, post-emergence, 480 h, POST, GERPU, I-3 solo 8 gai/ha, 20 DAT", "result": 10, "unit": "%"},
      {"measurement": "inhibition at 4 g/ha", "setting": "Geranium pusillum [1]; Geranium pusillum, post-emergence, 480 h, POST, GERPU, 20 DAT", "result": 0, "unit": "%"},
      {"measurement": "inhibition at 16 g/ha", "setting": "Geranium pusillum [1]; Geranium pusillum, post-emergence, 480 h, POST, GERPU, use rate 16 gai/ha, 20 DAT", "result": 10, "unit": "%"},
      {"measurement": "inhibition at 2 g/ha", "setting": "Geranium pusillum [1]; Geranium pusillum, post-emergence, GERPU POST, read-out: % activity", "result": 30, "unit": "%"},
      {"measurement": "inhibition at 8 g/ha", "setting": "Geranium pusillum [1]; Geranium pusillum, post-emergence, GERPU POST, use rate 8 gai/ha, read-out: % activity", "result": 70, "unit": "%"},
      {"measurement": "inhibition at 2 g/ha", "setting": "Geranium pusillum [1]; Geranium pusillum, post-emergence, POST, GERPU, read-out: % activity", "result": 20, "unit": "%"},
      {"measurement": "inhibition at 4 g/ha", "setting": "Geranium pusillum [1]; Geranium pusillum, post-emergence, POST, GERPU", "result": 40, "unit": "%"},
      {"measurement": "pest or weed control at 2 g/ha", "setting": "Amaranthus retroflexus; 2 gai/ha", "result": 90, "unit": "%"},
      {"measurement": "inhibition at 2 g/ha", "setting": "Amaranthus retroflexus; 2 gai/ha, read-out: % activity solo application", "result": 60, "unit": "%"},
      {"measurement": "inhibition at 2 g/ha", "setting": "Amaranthus retroflexus; use rate 2 gai/ha, read-out: solo application % activity", "result": 60, "unit": "%"},
      {"measurement": "inhibition at 2 g/ha", "setting": "Geranium pusillum [2]; use rate 2 gai/ha", "result": 0, "unit": "%"},
      {"measurement": "inhibition at 8 g/ha", "setting": "Geranium pusillum [2]; use rate 8 gai/ha", "result": 15, "unit": "%"},
      {"measurement": "inhibition at 2 g/ha", "setting": "Avena fatua", "result": 20, "unit": "%"},
      {"measurement": "pest or weed control at 2 g/ha", "setting": "Euphorbia heterophylla; 432 h, PRE, EPHHL, I-3 solo 2 gai/ha, 18 DAT", "result": 15, "unit": "%"},
      {"measurement": "pest or weed control at 8 g/ha", "setting": "Euphorbia heterophylla; 432 h, PRE, EPHHL, I-3 solo 8 gai/ha, 18 DAT", "result": 75, "unit": "%"},
      {"measurement": "inhibition at 2 g/ha", "setting": "Euphorbia heterophylla; 480 h, EPHHL PRE, 20 DAT, use rate 2 gai/ha, read-out: % activity", "result": 0, "unit": "%"},
      {"measurement": "inhibition at 8 g/ha", "setting": "Euphorbia heterophylla; 480 h, EPHHL PRE, 20 DAT, use rate 8 gai/ha, read-out: % activity", "result": 50, "unit": "%"},
      {"measurement": "pest or weed control at 8 g/ha", "setting": "Euphorbia heterophylla; 480 h, PRE, 8 gai/ha, 20 DAT", "result": 50, "unit": "%"},
      {"measurement": "inhibition at 2 g/ha", "setting": "Euphorbia heterophylla; 480 h, PRE, EPHHL, 2 gai/ha, 20 DAT, read-out: % activity solo application", "result": 5, "unit": "%"}
    ]}
  ]
}
